This is an account of results in PubChem BioAssay (NCI).

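Interpolation was linear, between the two tested concentrations surrounding the appropriate level; five concentrations were tested over 48 hours in 96-well plates. At the GI50, growth is halved. TGI denotes the concentration required for complete inhibition of growth.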

Test systems include MALME-3M melanoma; SF-295 CNS; SNB-75 CNS; CCRF-CEM leukemia; UACC-257 melanoma; SK-MEL-2 melanoma; COLO 205 colon; NCI/ADR-RES ovarian; DU-145 prostate; MCF7 breast.
Holding throughout (experiment): inhibition of tumour cell growth, NCI panel, 48 h

On to `Cc1ccc(NC(=O)C2C(=O)N(c3ccc(C)c(C)c3)C(=O)/C2=N\NC(N)=S)cc1C` (stereo unspecified), for which the TGI in the assay on MALME-3M melanoma, in the assay with SF-295 CNS, in the assay with SNB-75 CNS, in the assay with CCRF-CEM leukemia, in the assay with UACC-257 melanoma and with SK-MEL-2 melanoma was greater than 100 µM in each case.

For the compound `Cc1[nH]nc2c1C(=O)C=C(N(CCO)c1ccccc1)C2=O`, the TGI in the assay on MALME-3M melanoma, with SF-295 CNS, in the assay on SNB-75 CNS, in the assay with CCRF-CEM leukemia, in the assay with COLO 205 colon and in the assay on UACC-257 melanoma was greater than 100 µM each time.

With `CCCCN(CCCC)C(=O)C(=O)C(C)C(=O)CC` (stereo unspecified), the TGI in the assay on MALME-3M melanoma, with SF-295 CNS, in the assay on SNB-75 CNS, with COLO 205 colon, in the assay on UACC-257 melanoma and in the assay on SK-MEL-2 melanoma was greater than 100 µM in each case.

For the compound `CCCCCCNc1nc(N2CCOCC2)c2[nH]c(NCCCCCC)nc2n1`, the GI50 was 1650 nM in the assay on SF-295 CNS; 1460 nM with SNB-75 CNS; 1590 nM with NCI/ADR-RES ovarian; 1510 nM with DU-145 prostate; 1890 nM in the assay with COLO 205 colon; 1620 nM in the assay with UACC-257 melanoma. Further, the GI50 with SK-MEL-2 melanoma was 1890 nM. Moreover, the TGI is 3.21 µM in the assay with SF-295 CNS; 2.77 µM with SNB-75 CNS; 2.97 µM in the assay with NCI/ADR-RES ovarian; 2830 nM in the assay on DU-145 prostate; 3.6 µM in the assay with COLO 205 colon; 3.16 µM in the assay on UACC-257 melanoma. In the assay on SK-MEL-2 melanoma, this compound displayed a TGI of 3.51 µM.

In the case of `Cc1nc(Nc2ccccc2)sc1C(=O)NNc1ccc([N+](=O)[O-])cc1[N+](=O)[O-]`, the TGI is greater than 100 µM in the assay with MALME-3M melanoma; greater than 100 µM in the assay with SF-295 CNS; 95.3 µM with SNB-75 CNS; 58.2 µM with CCRF-CEM leukemia; greater than 100 µM in the assay on COLO 205 colon; greater than 100 µM in the assay with UACC-257 melanoma. In the assay with SK-MEL-2 melanoma, this compound came in with a TGI greater than 100 µM.

With `c1cc(-c2cn[nH]c2)cc(-c2cn[nH]c2)c1`, the TGI in the assay on SF-295 CNS is greater than 100 µM; in the assay with SNB-75 CNS, 42.7 µM; in the assay with CCRF-CEM leukemia, greater than 100 µM; with COLO 205 colon it was greater than 100 µM; with UACC-257 melanoma, greater than 100 µM; with SK-MEL-2 melanoma, greater than 100 µM.

Consider `CCc1cccc(C(C)CC)c1NC(=O)C(=O)C(CC(=O)Nc1ccc(Cl)c(Cl)c1)C(=O)OC` (stereo unspecified), for which the TGI in the assay on MALME-3M melanoma, in the assay on SF-295 CNS, in the assay with SNB-75 CNS, with CCRF-CEM leukemia, with COLO 205 colon and in the assay with UACC-257 melanoma was greater than 100 µM throughout. In addition, the TGI in the assay with SK-MEL-2 melanoma was greater than 100 µM.

Take `Cc1cccc2c1O/C(=C\c1ccc([N+](=O)[O-])o1)C2=O`: the GI50 is 971 nM in the assay on MALME-3M melanoma; 2000 nM with SF-295 CNS; 1640 nM in the assay on SNB-75 CNS; 2540 nM in the assay with NCI/ADR-RES ovarian; 659 nM in the assay on DU-145 prostate; 0.285 µM with CCRF-CEM leukemia. Further, the GI50 with COLO 205 colon is 660 nM; with UACC-257 melanoma, 1420 nM; with SK-MEL-2 melanoma it was 1760 nM. The TGI is 2.66 µM in the assay with MALME-3M melanoma; 6.46 µM with SF-295 CNS; 5.8 µM in the assay on SNB-75 CNS; greater than 60.4 µM in the assay on NCI/ADR-RES ovarian; 2120 nM with DU-145 prostate; 1.05 µM in the assay with CCRF-CEM leukemia. Further, the values for the TGI in the assay on COLO 205 colon, in the assay with UACC-257 melanoma and with SK-MEL-2 melanoma were 2.14 µM, 2.91 µM and 3.52 µM, respectively.

For the compound `CC1CCP(=O)(c2ccccc2)CC1` (stereo unspecified), the TGI in the assay on MALME-3M melanoma, with SF-295 CNS, in the assay on SNB-75 CNS, in the assay with CCRF-CEM leukemia, with COLO 205 colon and in the assay on UACC-257 melanoma was greater than 100 µM each time. This compound came in with a TGI in the assay with SK-MEL-2 melanoma greater than 100 µM.

With `COc1ccc(C(=O)C(C(=O)C(=O)Nc2nccs2)c2ccc(OC)cc2)cc1` (stereo unspecified), the TGI with MALME-3M melanoma, in the assay with SNB-75 CNS, in the assay with CCRF-CEM leukemia, in the assay with COLO 205 colon, in the assay with UACC-257 melanoma and in the assay on SK-MEL-2 melanoma was greater than 100 µM in each case.

Take `O=C(O)/C(=C\c1ccccc1Cl)S(=O)(=O)c1ccccc1`: the TGI in the assay with MALME-3M melanoma, with SF-295 CNS, in the assay on SNB-75 CNS, with CCRF-CEM leukemia, in the assay on COLO 205 colon and in the assay with UACC-257 melanoma was greater than 100 µM throughout. The TGI in the assay on SK-MEL-2 melanoma was greater than 100 µM.

Consider `N[C@@H]1CCCC[C@@H]1N.O=C([O-])CN(CP(=O)([O-])[O-])CP(=O)([O-])[O-].[Pt+2]`, for which the GI50 with MALME-3M melanoma was greater than 100000 nM; in the assay on SF-295 CNS, greater than 100000 nM; in the assay on SNB-75 CNS, greater than 100000 nM; in the assay on CCRF-CEM leukemia, 29 µM; with COLO 205 colon, 50100 nM; in the assay on UACC-257 melanoma, greater than 100000 nM. In addition, in the assay on SK-MEL-2 melanoma, the GI50 was greater than 100000 nM. The TGI is greater than 100 µM in the assay on MALME-3M melanoma; greater than 100 µM in the assay with SF-295 CNS; greater than 100 µM in the assay on SNB-75 CNS; 93.4 µM in the assay with CCRF-CEM leukemia; greater than 100 µM in the assay on COLO 205 colon; greater than 100 µM in the assay on UACC-257 melanoma. Further, in the assay on SK-MEL-2 melanoma, the TGI was greater than 100 µM.

Take `Cc1cc(N(CCC#N)CCC#N)ccc1N=Nc1cccc(Cl)c1`: the TGI in the assay on MALME-3M melanoma, in the assay with SF-295 CNS, in the assay on CCRF-CEM leukemia, with COLO 205 colon, with UACC-257 melanoma and in the assay with SK-MEL-2 melanoma was greater than 100 µM in each case.

As for `C/C1=C\C/C=C(\C)[C@H]2CC(CC/C(C)=C/CC1)[C@](C)(C=O)O2`, the GI50 with SF-295 CNS was 28900 nM; with SNB-75 CNS it was greater than 100000 nM; with NCI/ADR-RES ovarian it was greater than 100000 nM; in the assay with MCF7 breast, 38.2 µM; in the assay on DU-145 prostate it was 79800 nM; in the assay with COLO 205 colon it was greater than 100000 nM. For the same compound, the GI50 in the assay with UACC-257 melanoma and in the assay with SK-MEL-2 melanoma was greater than 100000 nM in each case. Also, the TGI with SF-295 CNS is 96.2 µM; with SNB-75 CNS, greater than 100 µM; in the assay with NCI/ADR-RES ovarian, greater than 100 µM; in the assay on MCF7 breast, 87.8 µM; in the assay on DU-145 prostate it was greater than 100000 nM; with COLO 205 colon, greater than 100 µM. For the same compound, the TGI with UACC-257 melanoma and in the assay with SK-MEL-2 melanoma was greater than 100 µM in each case.
